Earlier results on 3 molecules are cited in patent US20240226070A1, “URAT1 INHIBITOR, PHARMACEUTICAL COMPOSITIONS AND USES THEREOF” (UR-1 Therapeutics, Inc., priority 2021, published 2024).

Data set [1] has as its system 5/6 Nx rats. The following applies: for effect on aggravation of CKD by hyperuricemia: 5/6 Nx rats dosed with potassium oxonate (750 mg/kg BW).
The target of data set [2] is T1, ATP-binding cassette subfamily G member 2 (ABCG2) (Homo sapiens, UniProt Q9UNQ0).
T1 sequence (Q9UNQ0 1-655): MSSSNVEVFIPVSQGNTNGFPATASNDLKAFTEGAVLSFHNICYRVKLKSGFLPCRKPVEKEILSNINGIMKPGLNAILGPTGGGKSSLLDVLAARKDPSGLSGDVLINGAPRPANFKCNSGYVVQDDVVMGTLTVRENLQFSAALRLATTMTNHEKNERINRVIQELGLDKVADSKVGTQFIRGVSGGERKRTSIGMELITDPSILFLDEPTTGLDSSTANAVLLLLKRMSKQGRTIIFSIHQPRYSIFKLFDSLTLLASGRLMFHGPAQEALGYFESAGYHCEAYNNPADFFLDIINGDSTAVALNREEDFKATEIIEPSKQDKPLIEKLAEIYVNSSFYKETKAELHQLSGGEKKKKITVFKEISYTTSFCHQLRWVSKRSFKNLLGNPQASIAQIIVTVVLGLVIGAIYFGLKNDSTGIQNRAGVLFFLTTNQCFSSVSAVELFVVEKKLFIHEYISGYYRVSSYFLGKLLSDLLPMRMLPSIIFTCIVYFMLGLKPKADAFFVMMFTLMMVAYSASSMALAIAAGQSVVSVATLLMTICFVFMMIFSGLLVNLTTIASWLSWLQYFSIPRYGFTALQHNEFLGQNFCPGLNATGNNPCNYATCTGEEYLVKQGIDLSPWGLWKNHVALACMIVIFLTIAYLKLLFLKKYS
The following applies: in vitro.

For data set [3], the target named is T2, OAT1 (Homo sapiens, UniProt Q4U2R8).
T2 sequence (Q4U2R8 1-563): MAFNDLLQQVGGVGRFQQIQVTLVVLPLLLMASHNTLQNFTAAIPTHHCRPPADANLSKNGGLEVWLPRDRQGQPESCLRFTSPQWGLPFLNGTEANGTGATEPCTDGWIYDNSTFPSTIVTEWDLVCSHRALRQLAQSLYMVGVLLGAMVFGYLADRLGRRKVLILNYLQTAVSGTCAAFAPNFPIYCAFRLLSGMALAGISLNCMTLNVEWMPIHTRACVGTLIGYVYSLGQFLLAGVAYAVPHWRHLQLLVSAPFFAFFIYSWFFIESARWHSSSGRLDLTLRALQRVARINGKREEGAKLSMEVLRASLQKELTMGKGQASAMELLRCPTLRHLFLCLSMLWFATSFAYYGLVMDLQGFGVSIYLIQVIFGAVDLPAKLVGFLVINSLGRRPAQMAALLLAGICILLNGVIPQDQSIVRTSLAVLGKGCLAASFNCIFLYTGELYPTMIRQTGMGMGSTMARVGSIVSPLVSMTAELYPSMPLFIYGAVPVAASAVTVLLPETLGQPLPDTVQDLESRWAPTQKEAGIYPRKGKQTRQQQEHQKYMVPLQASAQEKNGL
The following applies: in vitro.

The target of data set [4] is T3, OAT3 (Homo sapiens, UniProt Q8TCC7).
T3 sequence (Q8TCC7 1-542): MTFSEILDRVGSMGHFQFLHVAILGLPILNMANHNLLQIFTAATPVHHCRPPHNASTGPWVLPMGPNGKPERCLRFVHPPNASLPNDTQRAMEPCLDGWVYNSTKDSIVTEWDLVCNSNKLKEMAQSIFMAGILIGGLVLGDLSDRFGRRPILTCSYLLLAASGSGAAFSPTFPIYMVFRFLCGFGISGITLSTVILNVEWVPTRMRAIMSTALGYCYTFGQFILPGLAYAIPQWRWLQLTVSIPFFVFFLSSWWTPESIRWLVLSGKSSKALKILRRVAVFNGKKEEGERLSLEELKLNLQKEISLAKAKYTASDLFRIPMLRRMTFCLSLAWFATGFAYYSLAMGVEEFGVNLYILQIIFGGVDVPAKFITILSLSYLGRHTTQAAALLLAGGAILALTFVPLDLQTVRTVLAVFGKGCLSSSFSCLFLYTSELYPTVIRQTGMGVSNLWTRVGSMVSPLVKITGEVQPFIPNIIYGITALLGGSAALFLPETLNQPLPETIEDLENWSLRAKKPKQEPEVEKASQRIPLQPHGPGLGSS
To be noted: in vitro.

The conditions of data set [5]: oral administration, 1.3 mg/kg.

Regarding `Oc1ncnc2[nH]ncc12` [Allopurinol, allopurinol], in data set [1], the “effect on aggravation of CKD by hyperuricemia” value is recorded as “prevented the aggravation of the disease”.

For the molecule `Cc1nc(-c2ccc(OCC(C)C)c(C#N)c2)sc1C(=O)O` [Febuxostat, febuxostat], the “effect on aggravation of CKD by hyperuricemia” value in data set [1] was “prevented the aggravation of the disease”. In addition, in data set [1] (5/6 rats that not received oxonic acid), the nephroprotection entry is “significant nephroprotection”.

Usually IC50 stands for the concentration at which inhibition is half-maximal. Broadly, the Cmax is the maximum level reached in the sampled fluid or tissue. On to `O=C(c1cc(Cl)c(O)c(Cl)c1)N1CS(=O)(=O)c2ccccc21` [Dotinurad, 3-(3,5-dichloro-4-hydroxybenzoyl)-1,1-dioxo-2,3-dihydro-1,3-benzothiazole], for which, in data set [2], the IC50 was 4.16 µM. In addition, in data set [3], the IC50 is 4.08 µM. Moreover, the IC50 in data set [4] is 1.32 µM. In addition, in data set [5], the Cmax was 415 ng/mL and the oral bioavailability is given as 2.5%. For the same molecule, in data set [5] (Sprague-Dawley rats), the plasma clearance was 402.1 mL/min/kg and the “terminal elimination half-life (T1/2)” value is listed as 1.88 h.
